According to US4616003A, “N^6 -dihydroxypropyladenosines” (Warner-Lambert Company, priority 1985, dated 1986):
Read-outs that look alike come from different tables or passages of the source.

Key:
adenosine A1 receptor = biological target: T1, adenosine A1 receptor (Rattus norvegicus, UniProt P25099); assay: Adenosine A1 receptor binding (RBA-1), displacement of [3H]-CHA
T1 construct: Whole brain minus cerebellum and brainstem from male Long Evans rats (150-200 g) was homogenized; from tissue; host or cells: rat whole brain minus cerebellum and brainstem, male Long Evans
T1 sequence (P25099 1-326): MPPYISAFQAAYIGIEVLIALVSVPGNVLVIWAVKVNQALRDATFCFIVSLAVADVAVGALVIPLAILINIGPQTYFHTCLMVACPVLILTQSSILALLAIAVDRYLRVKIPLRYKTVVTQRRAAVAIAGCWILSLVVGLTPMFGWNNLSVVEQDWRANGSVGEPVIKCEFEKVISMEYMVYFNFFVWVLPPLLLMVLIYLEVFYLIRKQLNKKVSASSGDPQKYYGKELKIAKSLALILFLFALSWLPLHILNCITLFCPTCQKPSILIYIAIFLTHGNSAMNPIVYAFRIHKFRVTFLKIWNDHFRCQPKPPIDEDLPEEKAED
Procedure: Whole brain minus cerebellum and brainstem from male Long Evans rats (150-200 g) was homogenized in 30 volumes of ice-cold 0.05M Tris-HCl buffer pH 7.7 using a Brinkman Polytron PT-10, (setting number 6 for 20 seconds) and centrifuged for ten minutes at 20,000×g (Sorvall RC-2), 4° C. The supernatant was discarded, and the pellet was resuspended and centrifuged as before. The pellet was resuspended in 20 ml Tris-HCl buffer containing two International Units/ml of adenosine deaminase (Sigma type III from calf intestinal mucosa), incubated at 37° C. for 30 minutes, then subsequently at 0° C. for ten minutes. The homogenate was again centrifuged, and the final pellet was resuspended in ice-cold 0.05M Tris-HCl buffer pH 7.7 to a concentration of 20 mg/ml original wet tissue weight and used immediately.
Tissue homogenate (10 mg/ml) was incubated in 0.05M Tris-HCl buffer pH 7.7 containing 1.0 nM [^3 H]-N^6 -cyclohexyladenosine [^3 H]-CHA) with or without test agents in triplicate for one hour at 25° C. Incubation volume was 2 ml. Unbound [^3 H]-CHA was separated by rapid filtration under reduced pressure through Whatman glass fiber (GF/B) filters. The filters were rinsed three times with 5 ml of ice cold 0.05M Tris-HCl buffer pH 7.7. The radio-labeled ligand retained on the filter was measured by liquid scintillation spectrophotometry after shaking the filters for one hour or longer on a mechanical shaker in 10 ml of Beckman Ready-Solv HP scintillation cocktail.
Nonspecific binding was defined as the binding which occurred in the presence of 1 mM theophylline. […] The Scatchard plot was calculated by linear regression of the line obtained by plotting the amount of radioligand bound (pmoles/gram of tissue) versus [formula] Since the amount of radioligand bound was a small fraction of the total amount added, free radioligand was defined as the concentration (nM) of radioligand added to the incubation mixture. The Hill coefficient was calculated by linear regression of the line obtained by plotting the log of the bound radioligand vs the log of the [formula] The maximal number of binding sites (Bmax) was calculated from the Scatchard plot.

male Swiss-Webster mice = assay: Antiwrithing (AW) test, acetic acid; format: in vivo; details: Mus musculus, sc; subcutaneous, 20 minutes before acetic acid i.p.; read-out: ED50, suppression of writhing by 50% relative to vehicle controls
Procedure: The antiwrithing (AW) test provides preliminary assessment of compounds with potential analgesic activity. The test is performed in male Swiss-Webster mice. Compounds are administered subcutaneously in aqueous 0.2% methylcellulose or other appropriate vehicles in volumes of 10 ml/kg. Dosages represent active moiety.
Acetic acid (0.6%, 10 ml/kg) is injected intraperitoneally 20 minutes after administration of the adenosine agonist. Writhing movements are counted for five minutes starting seven minutes after the acetic acid injection. Writhing is defined as abdominal constriction and stretching of the body and hind legs with concave arching of the back. Data are expressed as ED50 values, where the ED50 is the dose necessary to suppress writhing by 50% relative to vehicle controls. ED50 values are calculated by nonlinear regression analysis.

[1] = 1.0 nM [3H]-CHA, rat whole brain minus cerebellum and brainstem, read-out: RBA-1 (IC50, adenosine A1 receptor affinity)

SMILES	IC50 (adenosine A1 receptor; [1]) [nM]	ED50 (male Swiss-Webster mice) [mg/kg]	IC50 (adenosine A1 receptor) [nM]
CC1(C)OC[C@@H](CNc2ncnc3c2ncn3[C@@H]2O[C@H](CO)[C@@H](O)[C@H]2O)O1 [Example 5, (R)-N^6-[2,3-Dihydroxypropylisopropylidene]-adenosine]	440		
OCC(O)CNc1ncnc2c1ncn2[C@@H]1O[C@H](CO)[C@@H](O)[C@@H]1O (stereo partly drawn) [Example 1, (R,S)-N^6 [2,3-Dihydroxypropyl]adenosine]	9	0.07	
OC[C@@H](O)CNc1ncnc2c1ncn2[C@@H]1O[C@H](CO)[C@@H](O)[C@H]1O [Example 3]			46

More lines, main results first:

IC50 (adenosine A1 receptor; [1]) [nM]	SMILES	ED50 (male Swiss-Webster mice) [mg/kg]	IC50 (adenosine A1 receptor) [nM]
34	Nc1nc(NCC(O)CO)c2ncn([C@@H]3O[C@H](CO)[C@@H](O)[C@H]3O)c2n1 (stereo partly drawn) [Example 8]		
430	CC1(C)OCC(CNc2ncnc3c2ncn3[C@@H]2O[C@H](CO)[C@@H](O)[C@H]2O)O1 (stereo partly drawn) [Example 4, (R,S)-N^6-[2,3Dihydroxypropylisopropylidene]adenosine]		
